The record followed here is PubChem BioAssay AID588711 (The Scripps Research Institute Molecular Screening Center, 2011).

Values joined by “and” are separate entries in the source; they are usually repeats but may differ in a detail not shown here. Equal values may be shown once. Active and inactive are the calls of the source. The rule behind the calls is not given here. Some results are limits rather than exact numbers.

As a reminder, the IC50 is the concentration that gives 50% inhibition.

This assay concerns the target Insulin-degrading enzyme (Homo sapiens) (UniProt P14735). Description: inhibitors of recombinant IDE enzyme, late-stage follow-up, counter-screen for IDE inhibitor project, biochemical, fluorescence polarization (AID 588711). Background: A counterscreen serves to expose hits that act by an unwanted route or on another target.

Sequence of Insulin-degrading enzyme (Homo sapiens) (P14735 whole entry, looked up): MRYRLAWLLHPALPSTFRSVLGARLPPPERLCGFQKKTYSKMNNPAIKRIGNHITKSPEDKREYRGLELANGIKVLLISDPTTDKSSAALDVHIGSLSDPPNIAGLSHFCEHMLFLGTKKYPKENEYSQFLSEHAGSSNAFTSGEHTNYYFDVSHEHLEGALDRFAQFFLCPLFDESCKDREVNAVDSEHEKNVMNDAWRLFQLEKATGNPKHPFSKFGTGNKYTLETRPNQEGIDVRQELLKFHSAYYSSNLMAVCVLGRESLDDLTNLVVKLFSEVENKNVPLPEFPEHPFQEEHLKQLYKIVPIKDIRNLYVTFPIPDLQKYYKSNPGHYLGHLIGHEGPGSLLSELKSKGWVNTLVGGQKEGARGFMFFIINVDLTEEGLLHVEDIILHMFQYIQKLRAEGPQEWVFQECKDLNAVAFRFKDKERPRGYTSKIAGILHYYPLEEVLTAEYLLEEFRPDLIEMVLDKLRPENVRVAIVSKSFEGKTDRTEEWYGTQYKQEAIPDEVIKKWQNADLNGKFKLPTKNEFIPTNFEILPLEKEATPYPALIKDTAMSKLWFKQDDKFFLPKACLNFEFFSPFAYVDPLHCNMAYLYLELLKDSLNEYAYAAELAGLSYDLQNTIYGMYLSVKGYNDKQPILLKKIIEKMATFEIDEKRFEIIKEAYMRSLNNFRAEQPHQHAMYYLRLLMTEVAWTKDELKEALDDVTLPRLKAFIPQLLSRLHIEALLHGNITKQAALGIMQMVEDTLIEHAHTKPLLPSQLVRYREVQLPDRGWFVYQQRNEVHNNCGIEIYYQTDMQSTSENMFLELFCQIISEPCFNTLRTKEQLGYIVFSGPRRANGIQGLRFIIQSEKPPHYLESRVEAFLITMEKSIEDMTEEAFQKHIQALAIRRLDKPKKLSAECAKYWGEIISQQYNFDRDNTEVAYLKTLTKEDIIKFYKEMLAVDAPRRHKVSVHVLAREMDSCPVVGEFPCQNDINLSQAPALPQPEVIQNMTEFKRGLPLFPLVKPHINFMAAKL

As to `O=C(C1CC1)N1CCN(c2ccnc3cc(Cl)ccc23)CC1`, the IC50 entry was “inactive”. In the case of `COc1cc(/C=C2\SC(=S)N(NC(C)=O)C2=O)ccc1OC(=O)c1ccco1`, the IC50 entry is “inactive”. Consider `Cc1ccc(-c2nc(C(=O)Nc3cccc(C(F)(F)F)c3)cs2)cc1`, for which the IC50 was > 54.7 µM (inactive). For `O=C(Nc1cccc(C(F)(F)F)c1)c1csc(-c2ccccc2)n1` the value was > 54.7 µM (inactive). Consider `COc1ccc(NC(=O)CSc2nnc(CN3CCOCC3)n2C)cc1Cl`, for which the IC50 was > 54.7 µM (inactive). With `Cc1ccc(C)c(N2C(=N)S/C(=C\c3ccc(-c4ccccc4C(=O)O)o3)C2=O)c1`, the IC50 is > 54.7 µM (inactive). With `O=C(CSc1nnc(-c2cccc(Cl)c2)n1Cc1ccco1)c1ccc2ccccc2c1`, the IC50 was > 54.7 µM (inactive). As for `O=C(CSc1nnc(-c2cccc(Cl)c2)n1Cc1ccco1)Nc1ccc2c(c1)OCCO2`, the IC50 was > 54.7 µM (inactive).

Regarding `Cn1c(SCc2nc3ccccc3[nH]2)nnc1-c1cccc(Cl)c1`, the IC50 is > 54.7 µM (inactive). Turning to `O=C(Nc1cccc(C(F)(F)F)c1)c1csc(-c2ccncc2)n1`, the IC50 was 2.8 µM. As to `Clc1cccc(-c2nnc(SCc3nc4ccccc4[nH]3)n2Cc2ccco2)c1`, the 50% inhibitory concentration (IC50) is 2.34 µM.

In the case of `O=C(CSc1nnc(-c2cccc(Cl)c2)n1Cc1ccco1)Nc1ccc2cn[nH]c2c1`, the IC50 is > 54.7 µM (inactive). In the case of `CC(Sc1nnc(-c2cccnc2)n1-c1ccccc1F)C(=O)N1CCCc2ccccc21` (stereo not given), the IC50 was > 54.7 µM (inactive). For `Cc1c(CCC(=O)NCCCn2ccnc2)c(=O)oc2cc3oc4c(c3cc12)CCCC4`, the 50% inhibitory concentration (IC50) was 6.14 µM. As for `Cn1c(=O)c(C(=O)CN2CCCc3ccccc32)c(N)n(Cc2ccccc2)c1=O`, the IC50 was > 54.7 µM (inactive). Consider `Clc1cccc(-c2nnc(SCc3nc4ccccc4[nH]3)n2-c2ccccc2)c1`, for which the IC50 was > 54.7 µM (inactive). Take `O=C(Nc1cccc(C(F)(F)F)c1)c1csc(Cc2cccc(C(F)(F)F)c2)n1`: the IC50 was > 54.7 µM (inactive). For `COc1ccc(C(=O)N2CCN(C(=O)C3COc4ccccc4O3)CC2)cc1OC` (stereo not given) the value was “inactive”; for `O=C(Nc1cccc(C(F)(F)F)c1)c1csc(-c2cccc(C(F)(F)F)c2)n1`, > 54.7 µM (inactive); for `O=C(Nc1cc(C(F)(F)F)cc(C(F)(F)F)c1)c1csc(-c2ccncc2)n1`, > 54.7 µM (inactive).

As for `COc1ccc(-c2nc(C(=O)Nc3cccc(C(F)(F)F)c3)cs2)cc1`, the IC50 is > 54.7 µM (inactive). For the compound `Nc1c(C(=O)Nc2nccs2)sc2nc(-c3cccs3)cc(C(F)(F)F)c12`, the IC50 is > 18.2 µM (inactive). As for `CCOc1ccc2[nH]c3c(N4CCN(C(=O)c5ccco5)CC4)ncnc3c2c1`, the IC50 was 8.54 µM. With `O=C(CSc1nnc(-c2cccc(Cl)c2)n1Cc1ccco1)Nc1ccccc1C(F)(F)F`, the IC50 is > 54.7 µM (inactive). Consider `Cc1ccc(NC(=O)CSc2nnc(-c3cccc(Cl)c3)n2Cc2ccco2)c(C)c1`, for which the IC50 was > 54.7 µM (inactive). Regarding `O=c1c2ccccc2sn1-c1cc(S(=O)(=O)N2CCOCC2)ccc1N1CCOCC1`, the IC50 was 1.71 µM. With `COc1cccc(-c2nnc(SCc3nc4ccccc4[nH]3)n2Cc2ccco2)c1`, the IC50 was 5.9 µM.

For the compound `Cc1nc(-c2cccnc2)sc1C(=O)Nc1cccc(C(F)(F)F)c1`, the IC50 was > 54.7 µM (inactive).

Regarding `Cc1cccc(-c2nnc(SCc3nc4ccccc4[nH]3)n2Cc2ccco2)c1`, the IC50 is 7.21 µM and 6.15 µM. On to `O=C(Nc1ccc2oc(-c3cccnc3)nc2c1)c1ccc2c(c1)OCCO2`, for which the IC50 is > 54.7 µM (inactive).
